One series has as its system platelet stickiness. The series is described as follows: retention test according to Morris (inhibition of platelet stickiness on glass beads). In kind it is cell-based. Particulars: human citrate-blood, 10 min at 37°C. The protocol: 1. The inhibiting effect upon the platelet stickiness was determined by means of the so-called retention test according to Morris [see E. Deutsch et al, 1. Internationales Symposium uber Stoffwechsel und Membranpermeabilitat von Erythrocyten und Thrombocyten, Vienna, Austria (1969); Georg Thieme Verlag, Stuttgart, Germany]. 1 ml of human citrate-blood is pipetted into each of a number of small test tubes, and the test compound is added to various final concentrations. The tubes are incubated for 10 minutes at 37°C. 1 gm of glass beads (glass beads for gas-chromatography) is added to half of the tubes. Finally, the closed tubes are attached to a vertical wheel and rotated for 1 minute. By this means good contact is obtained between the glass beads and the blood. The tubes are then allowed to stand at room temperature for another hour, after which time a satisfactory sedimentation of erythrocytes has taken place. 0.01 ml of the supernatant plasma is removed, diluted to 1:8,000 with celloscope solution, and the platelet count is read in the celloscope.

The next series relates to bleeding time. The series is described as follows: prolonging effect upon the bleeding time, method of Duke. The following applies: 10 mgm/kg per os, mice, vs untreated animals. In kind it is in vivo. As for the experimental part:
3. The prolonging effect upon the bleeding time was ascertained by the method of Duke, J. Amer. Med. Assoc. 15, 1185 (1910). 10 mgm/kg of the test compound were given per os to non-anesthetized mice. After 1 or 3 hours, about 0.5 mm was cut off from the tail of each animal, and the exuded blood was carefully soaked up with filter paper at intervals of 30 seconds. The number of drops of blood so obtained was used as a measure for the bleeding time compared to untreated animals (5 animals/test).

Series [1] in a line: acute toxicity in white mice after oral or intravenous administration. The following applies: observation time 14 days; for animals died: 250 mgm/kg p.o.; for LD50 at 336 h: mouse, in vivo. The class given is in vivo. As for the experimental part:
4. The acute toxicities of the compounds were determined in white mice (observation time: 14 days) after oral or intravenous adminstration. The LD50 was calculated from the percentage of animals which died after different doses within the observation time [see Finney et al in Probit Analysis, third Edition, Cambridge (1971)].

For series [2], the system named is thrombocyte aggregation. The series is described as follows: inhibition of thrombocyte aggregation induced by adenosine diphosphate (ADP), Born and Cross. The following applies: 10 min, platelet-rich human plasma, 10 min at 37°C, read-out: ED50 (concentration which reduces the maximum light-permeability after addition of ADP by 50%). In kind it is cell-based. From the text:
(§1) 2. The inhibiting action upon thrombocyte aggregation was ascertained by the method of Born and Cross, J. Physiol. 170, 397 (1964), in the platelet-rich plasma of healthy human test subjects, by photometrically ascertaining and registering the rate of decrease of the optical density after addition of (a) adenosine diphosphate (ADP). The angle of inclination of the density curve is a measure of the rate of aggregration (V max.). The point on the curve which corresponded to the greatest light-permeability was used for calculation of the optical density (o.D.).
The ADP-doses were held to a minimum, but still sufficiently large to result in an irreversible aggregation. Prior to addition of ADP, each plasma sample was incubated for 10 minutes at 37°C with various amounts of the test compound. From the data thus obtained, the median effective amount of test compound (ED50), i.e. the concentration which reduces the maximum light-permeability in platelet-rich plasma after addition of ADP by 50%, was calculated.

The test system of series [3] is thrombocyte aggregation. Briefly: inhibition of thrombocyte aggregation induced by collagen. The class given is cell-based, human. The following applies: platelet-rich plasma.
Text: as §1
(b) Aggregration with collagen
The procedure is the same as described under (a). To provoke aggregation commercial collagen was used, containing 1 mgm of collagen fibrils per 1 ml. To provoke maximum aggregation, about 0.01 ml of this collagen solution was added to 1 ml of platelet-rich plasma. Previously, the plasma was incubated at 37°C with varying quantities of test compound for 10 minutes each: […]

[4] abbreviates: po, read-out: Toxicity (p.o. bound).

Each structure is given as a SMILES string. Read-outs that look alike come from different tables or passages of the source. Some results are limits rather than exact numbers.

Turning to `CN1CCN(c2cc3ccccc3c(N3CCOCC3)n2)CC1` [C, 1-morpholino-3-(N'-methyl-piperazino)-isoquinoline], the “Inhibition in % (platelet stickiness)” value in the series with platelet stickiness (5×10^^-5 mol/liter) turned out to be 50%. Besides, in the series on bleeding time (1 hour after application), the “% Prolongation of bleeding time” value is listed as 85%. Also, the animals died in series [1] was 2 out of 5. For the same molecule, in series [1] (setting [4]), the LD50 at 336 h is greater than 250 mg/kg.
For the molecule `[O-][S+]1CCN(c2nc(N3CCNCC3)cc3ccccc23)CC1` [B, 1-(1-oxido-thiomorpholino)-3-piperazino-isoquinoline], in the series on platelet stickiness (3×10^^-5 mol/liter), the “Inhibition in % (platelet stickiness)” value came out at 33%. For the same molecule, the IC50 in the series with thrombocyte aggregation [2] was found to be 30 µM. The figures for the “% inhibition of O.D.” value in the series on thrombocyte aggregation [3] (3.10^^-5 mol/liter) and in the series on thrombocyte aggregation [3] (10^^-5 mol/liter) were 96% and 80%, respectively. Further, the “% inhibition of Vmax” value in the series on thrombocyte aggregation [3] (3.10^^-5 mol/liter) was 96%; with thrombocyte aggregation [3] (10^^-5 mol/liter), 75%. For the same molecule, the “% Prolongation of bleeding time” value turned out to be 83% in the series with bleeding time (1 hour after application) and 16% in the series with bleeding time (3 hours after application). Moreover, the LD50 at 336 h in series [1] (iv, read-out: LD50) was 123 mg/kg; in series [1] (po, read-out: LD50), 940 mg/kg.
`[O-][S+]1CCN(c2nc(N3CCNCC3)cc3c(Cl)cccc23)CC1` [Compound E, 1-(1-oxido-thiomorpholino)-3-piperazino-5-chloro-isoquinoline]: in the series with platelet stickiness (10^^-4 mol/liter), the “Inhibition in % (platelet stickiness)” value came out at 92%. Further, in the series with thrombocyte aggregation [3] (10^^-5 mol/liter), the “% inhibition of O.D.” value was determined as 100% and the “% inhibition of Vmax” value is listed as 100%. The “% Prolongation of bleeding time” value with bleeding time (1 hour after application) is 146%. In addition, the animals died in series [1] is 0 out of 5. Besides, in series [1] (setting [4]), the LD50 at 336 h was greater than 250 mg/kg.
With `c1ccc2c(N3CCSCC3)nc(N3CCNCC3)cc2c1` [A, 1-thiomorpholino-3-piperazino-isoquinoline], in the series on platelet stickiness (3×10^^-5 mol/liter), the “Inhibition in % (platelet stickiness)” value is listed as 18%. Moreover, in the series on thrombocyte aggregation [3] (10^^-4 mol/liter), the “% inhibition of O.D.” value came out at 100% and the “% inhibition of Vmax” value worked out at 100%. Besides, in the series with thrombocyte aggregation [3] (10^^-5 mol/liter), the “% inhibition of O.D.” value is on record as 62% and the “% inhibition of Vmax” value is recorded as 51%. In addition, the “% Prolongation of bleeding time” value with bleeding time (1 hour after application) stood at 90%.
For the molecule `Cc1cccc2c(N3CC[S+]([O-])CC3)nc(N3CCNCC3)cc12` [D, 1-(1-oxido-thiomorpholino)-3-piperazino-5-methyl-isoquinoline], in the series on platelet stickiness (10^^-4 mol/liter), the “Inhibition in % (platelet stickiness)” value is on record as 86%. In addition, in the series with thrombocyte aggregation [3] (3.10^^-5 mol/liter), the “% inhibition of O.D.” value came to 100% and the “% inhibition of Vmax” value was found to be 100%. Further, the “% Prolongation of bleeding time” value with bleeding time (1 hour after application) amounted to 78%. Also, the animals died in series [1] is 0 out of 5. For the same molecule, the LD50 at 336 h in series [1] (setting [4]) is greater than 250 mg/kg.
`COc1cccc2c(N3CC[S+]([O-])CC3)nc(N3CCNCC3)cc12` [F, 1-(1-oxido-thiomorpholino)-3-piperazino-5-methoxy-isoquinoline]: the “Inhibition in % (platelet stickiness)” value in the series on platelet stickiness (10^^-4 mol/liter) is given as 70%. Further, in the series with thrombocyte aggregation [3] (10^^-5 mol/liter), the “% inhibition of O.D.” value is 100% and the “% inhibition of Vmax” value is given as 100%. For the same molecule, the “% Prolongation of bleeding time” value in the series with bleeding time (1 hour after application) was 117%.

For the origin of these results see patent US3975524A, “3-Piperazino-isoquinolines and salts thereof” (Boehringer Ingelheim GmbH, priority 1974, dated 1976).
